Experimental data: PMC6010013, “Synthesis, physiochemical property and antimicrobial activity of novel quaternary ammonium salts” (Journal of Enzyme Inhibition and Medicinal Chemistry, 2017)
Where two headings read alike, the source gives them in different places.

Key:
Type in all cases: cell-based
[1] = tested on: human normal liver (LO2) cell line; experiment: Cytotoxicity, MTT assay
Procedure: These six series of antimicrobial compounds may be applied to daily or clinical disinfectants for unbroken skin and trauma, or agricultural fungicides alternatively. Thus, their cytotoxicity for skin or body tissues are crucial. In this study, the cytotoxicity of target compounds was evaluated for human immortalised epidermal (HaCat) and human normal liver (LO2) cell line using MTT assay. […] The IC50 values of 5a, 6a, 10a, 16a, 16 b were about more than 50 μg/mL for LO2 and HaCat.
Cytotoxicity Testing with MTT Method
Human immortalized epidermal cells (HaCat) line were cultured in Dulbecco’s modified Eagle’s medium containing 10% fetal bovine serum, 1% penicillin, and 1% streptomycin at 37°C in a 5% CO2/95% air incubator MCO-15AC (SANYO). Human normal liver cells (LO2) line were cultured in Roswell Park Memorial Institute medium containing 10% fetal bovine serum, 1% penicillin, and 1% streptomycin at 37°C in a 5% CO2/95% air incubator MCO-15AC (SANYO). HaCat or LO2 cells in 96-well plate were adjusted to 1.0 × 10^5 cells mL-1 and cells were passed and cell supernatant was pour out before plating on glass slide at 37°C, 5% CO2 for 24 h. Cells were pretreated with 100 μL QAS for 24 h and cell supernatant with QAS was pour out and washed with PBS buffer system. Then, the cells were treated with the MTT solution (MTT, 3-(4,5-dimethythiazol-2-yl)-2,5-diphenyl-tetrazolium bromide, 20 μL, 5 mg/mL) for 4 h. The dark blue formazan crystal formed in the intact cells was solubilized with dimethyl sulfoxide, and absorbance at 570 nm was measured with a microplate reader (Multiskan MK3-Thermo Labsystems, USA). The results were expressed as percentage of the control value from the normal cells without treatments of QAS. […]

Canidia albicans = experiment: MBC, agar plating of dilutions without growth; details: 99.9% bactericidal; for MBC: read-out: Minimal bactericidal concentration (MBC)
Source text: (§1) In this paper, antimicrobial activities of 24 QASs were detected by quantitative tests. […] Benzalkonium chloride (BZK) and chlorhexidine acetate (CA) was selected as positive controls. Representative compound POT-C12QAS (2) which synthesised and evaluated in previous work was also taken as a reference compound in MIC, MBC and cytotoxicity tests. […]
(§2) agriculture were used as target pathogens in this study, including three strains of Gram-positive bacteria (S. Aureus, α-H-tococcus, β-H-tococcus), three strains of Gram-negative bacteria (E. coli, P. aeruginosa, Proteus vulgaris) and four strains of fungi (Canidia albicans, Cytospora mandshurica, Physalospora piricola, Aspergillus niger). The antimicrobial tests were assayed, according to standard CLSI methods for antimicrobial dilution susceptibility tests to measure the minimum inhibitory concentration (MIC) and minimum bactericidal concentration (MBC)2.
(§3) A broth tube dilution method was followed to determine the MIC values for all the screened compounds against the micro-organisms, and for comparison benzalkonium chloride (BZK) and chlorhexidine acetate (CA) was used as a reference. For sample preparation, each of the test compounds and reference were dissolved in DMSO or sterile water at a concentration of 1600 μg/mL, and further dilutions of the compounds and reference in culture medium MHB (Muller-Hinton Broth) were prepared at the required quantities of 400, 200, 100 etc., down to 0.39 μg/mL. Bacterial strains and fungal strains were maintained on MHA (Muller-Hinton Agar) medium at 37℃ or 28 ℃ for 12 h or 72h, respectively. The microbial inocula were prepared by suspension in 10 mL of culture medium for colonies from culture on MHA. The cell density of each inoculum was adjusted in culture medium of a 0.5 McFarland standard (1-2×10^8 CFU/mL). The final amount applied was 10^5 CFU/mL for bacteria and fungi. The microbial inocula were added to the twofold diluted samples. One growth control tube was prepared […] the addition of the compound and one blank tube was prepared without the addition of the microorganism. MIC values were read after incubation at 37℃ or 28 ℃ for bacterial and fungal strains, respectively. After 12 h or 72h, the last tube with no growth of micro-organisms was recorded to represent the MIC value expressed in μg/ml. All experiments were carried out three times. […]
(§4) was placed on agar plates in triplicate, and incubated at 37℃ or 28 ℃ for 12 h or 72h. The number of colonies on each plate was read, and the MBC was determined as the lowest concentration that achieved a 99.9% bactericidal in the agar plate.

Aspergillus niger = experiment: MBC, agar plating of dilutions without growth; details: 99.9% bactericidal; for MBC: read-out: Minimal bactericidal concentration (MBC)
Source text: as §1, §2, §3, §4

Cytospora mandshurica = experiment: MBC, agar plating of dilutions without growth; details: 99.9% bactericidal; for MBC: Cytospora, read-out: Minimal bactericidal concentration (MBC)
Source text: as §1, §2, §3, §4

Proteus vulgaris = experiment: MBC, agar plating of dilutions without growth; details: 99.9% bactericidal; for MBC: read-out: Minimal bactericidal concentration (MBC)
Source text: as §1, §2, §3, §4

α-H-tococcus = experiment: MBC, agar plating of dilutions without growth; details: 99.9% bactericidal; for MBC: read-out: Minimal bactericidal concentration (MBC)
Source text: as §1, §2, §3, §4

E. coli = experiment: MBC, agar plating of dilutions without growth; details: 99.9% bactericidal; for MBC: Escherichia coli, read-out: Minimal bactericidal concentration (MBC)
Source text: as §1, §2, §3, §4

Physalospora piricola = experiment: MBC, agar plating of dilutions without growth; details: 99.9% bactericidal; for MBC: read-out: Minimal bactericidal concentration (MBC)
Source text: as §1, §2, §3, §4

S. aureus = experiment: MBC, agar plating of dilutions without growth; details: 99.9% bactericidal; for MBC: Staphylococcus aureus, read-out: Minimal bactericidal concentration (MBC)
Source text: as §1, §2, §3, §4

P. aeruginosa = experiment: MBC, agar plating of dilutions without growth; details: 99.9% bactericidal; for MBC: Pseudomonas aeruginosa, read-out: Minimal bactericidal concentration (MBC)
Source text: as §1, §2, §3, §4

Haemolysis assay = details: human red blood cells (erythrocyte suspension), 1 h at 37 ℃, read-out: Haemolysis rate; for hemolysis at 1 h, 12.5 μg/mL: 12.50 μg/mL
Procedure: The surfactant may be absorbed and penetrate to the cell membrane, where it makes osmotic phenomena by altering the permeability of membrane, which in turn causes the cellular lysis. Haemolysis assay gives quantitative estimation about haemoglobin release when red blood cells are treated with QASs. Haemolytic assay of QASs at different concentration was carried out in Table 4. […] For 5a-b, 6a-b, 10a-c, 13a-b, and 16a-d, their safe concentration can more than 100 μg/mL. Compared with BZK and CA, all QASs were safe to be used when they circulated into the blood in low concentration. […]
The human blood from healthy individual was collected in a tube containing heparin, and the blood was centrifuged at 1500 rpm for 3 min. The […] (Erythrocyte) was collected and plasma was discarded and further washed five times with sterile normal saline solution. Then the cells were diluted to 0.2% of their volume with normal saline solution. 2 mL of the diluted red blood cells suspension was mixed with (a) 2 mL of normal salinesolution as a negative control; (b) 2 mL of distilled water as a positive control; (c) 2 mL of QAS solution which were dispersed into normal saline solution at the different concentrations ranging from 3.125 to 400 μg/mL. Then the mixtures were shaken well and incubated for 1 h at 37 ℃. Finally, the mixtures were centrifuged for 5min at 2000 r/min and the absorbances of supernatant at 540 nm was measured by a microplate reader (Multiskan MK3-Thermo Labsystems, USA). The hemolysis ratio was calculated as follows: The hemolysis ratio(%) = (OD Sample−OD Negative)/(OD Positive −OD Negative) ×100%. The hemolysis evaluation of QASs was performed in triplicate and results were expressed as the mean ± SD.

Row | Compound | MBC (Canidia albicans) [µg/mL] | MBC (Aspergillus niger) [µg/mL] | MBC (Cytospora mandshurica) [µg/mL] | MBC (Proteus vulgaris) [µg/mL] | MBC (α-H-tococcus) [µg/mL] | MBC (E. coli) [µg/mL] | MBC (Physalospora piricola) [µg/mL] | MBC (S. aureus) [µg/mL] | MBC (P. aeruginosa) [µg/mL] | hemolysis at 1 h, 6.25 μg/mL (Haemolysis assay) [%] | hemolysis at 1 h, 12.5 μg/mL (Haemolysis assay) [%] | hemolysis at 1 h, 25 μg/mL (Haemolysis assay) [%] | hemolysis at 1 h, 50 μg/mL (Haemolysis assay) [%] | hemolysis at 1 h, 100 μg/mL (Haemolysis assay) [%] | hemolysis at 1 h, 200 μg/mL (Haemolysis assay) [%] | hemolysis at 1 h, 400 μg/mL (Haemolysis assay) [%] | also measured
1 | Benzalkonium chloride [BZK, reference compound] | – | – | – | – | – | – | – | – | – | – | – | – | – | – | – | – | Cytotoxicity IC50 [1]: 2.12 ± 0.43 µg/mL; Minimal bactericidal concentration (MBC) (Canidia albicans): 25 µg/mL; Minimal bactericidal concentration (MBC) (Aspergillus niger): 6.25 µg/mL; Minimal bactericidal concentration (MBC) (Cytospora mandshurica): 6.25 µg/mL; Minimal bactericidal concentration (MBC) (Proteus vulgaris): 25 µg/mL; Minimal bactericidal concentration (MBC) (α-H-tococcus): 3.125 µg/mL; Minimal bactericidal concentration (MBC) (E. coli): 25 µg/mL; Minimal bactericidal concentration (MBC) (Physalospora piricola): 3.125 µg/mL; Minimal bactericidal concentration (MBC) (S. aureus): 3.125 µg/mL; Minimal bactericidal concentration (MBC) (P. aeruginosa): 25 µg/mL
2 | C[N+](CCO)(CCO)CCCCCCCCCCCCSc1nnc(-c2ccc(F)cc2)o1 [Compound 5d] | 12.5 | 25 | 12.5 | 25 | 12.5 | 25 | 3.12 | 12.5 | 50 | 0.49 ± 0.12 | 0.87 ± 0.27 | 2.43 ± 0.82 | 4.81 ± 0.74 | 32.4 ± 6.78 | 66.7 ± 5.21 | 66.9 ± 4.12 | –
3 | C[N+](CCO)(CCO)CCCCCCCCCCSc1nnc(-c2ccc(F)cc2)o1 [Compound 5c] | 25 | 25 | 12.5 | 50 | 12.5 | 50 | 6.25 | 25 | 50 | 0.43 ± 0.16 | 0.75 ± 0.19 | 2.31 ± 0.67 | 4.89 ± 0.53 | 33.1 ± 4.87 | 52.3 ± 6.34 | 67.2 ± 5.89 | –
4 | C[N+](CCO)(CCO)CCCCCCCCSc1nnc(-c2ccc(C(F)(F)F)cc2)o1 [Compound 6b] | 25 | 25 | 12.5 | 50 | 25 | 50 | 6.25 | 25 | 50 | 0.18 ± 0.06 | 0.51 ± 0.08 | 0.43 ± 0.1 | 0.7 ± 0.18 | 4.61 ± 0.31 | 26.2 ± 3.68 | 80.4 ± 4.98 | Cytotoxicity IC50 ([1]; LO2 cells, MTT, 24 h): 38.72 ± 2.92 µg/mL
